Laboratory results published in PubChem BioAssay (NCI).
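96-well plates; 48 h exposure; 5 concentrations. Endpoints by linear interpolation between flanking doses. Not reached: highest tested concentration assigned. Abbreviation: GI50, concentration required for 50% inhibition of growth. At the TGI there is no net growth.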

Tests used:
Experiment in all cases: growth of human tumour cells (NCI), 48 h
HCT-116 colon = system: HCT-116 colon
HOP-92 NSCLC = system: HOP-92 NSCLC
HT29 colon = system: HT29 colon
KM12 colon = system: KM12 colon
MDA-MB-435 = system: MDA-MB-435
NCI/ADR-RES ovarian = system: NCI/ADR-RES ovarian
OVCAR-5 ovarian = system: OVCAR-5 ovarian
RXF 393 renal = system: RXF 393 renal
SF-295 CNS = system: SF-295 CNS
SK-MEL-5 melanoma = system: SK-MEL-5 melanoma

Compound | GI50 (HCT-116 colon) | TGI (HCT-116 colon) | GI50 (HOP-92 NSCLC) | TGI (HOP-92 NSCLC) | GI50 (HT29 colon) | TGI (HT29 colon) | GI50 (KM12 colon) | TGI (KM12 colon) | GI50 (MDA-MB-435) | TGI (MDA-MB-435) | GI50 (NCI/ADR-RES ovarian) | TGI (NCI/ADR-RES ovarian) | GI50 (OVCAR-5 ovarian) | TGI (OVCAR-5 ovarian) | GI50 (RXF 393 renal) | TGI (RXF 393 renal) | GI50 (SF-295 CNS) | TGI (SF-295 CNS) | GI50 (SK-MEL-5 melanoma) | TGI (SK-MEL-5 melanoma)
O=c1[nH]c2ccccc2n1-c1n[nH]c2ccccc12 | 24.6 µM | 67.5 µM | 4.5 µM | 58.2 µM | 37.6 µM | > 100 µM | 3.21 µM | > 100 µM | 23.7 µM | 57.4 µM | 30.3 µM | > 100 µM | 33.6 µM | > 100 µM | 43.6 µM | > 100 µM | 25.4 µM | 59.8 µM | 16.9 µM | 35.9 µM
CC(C)C(=O)Oc1cc2c(=O)oc3c(OC(=O)C(C)C)c(OC(=O)C(C)C)cc4c(=O)oc(c1OC(=O)C(C)C)c2c34 |  | > 100 µM |  | > 100 µM |  | > 100 µM |  | > 100 µM |  | > 100 µM |  | > 100 µM |  | > 100 µM |  | > 100 µM |  | > 100 µM |  | > 100 µM
O=C(Cc1ccccc1)NN1C(=O)/C(=C\c2ccc(O)cc2)SC1=Nc1ccccc1 |  | > 100 µM |  | > 100 µM |  | > 100 µM |  | > 100 µM |  | > 100 µM |  | > 100 µM |  | > 100 µM |  | > 100 µM |  | > 100 µM |  | > 100 µM
O=C(Nc1ccccc1C(=O)N/N=C(\c1ccccc1)c1ccccn1)c1ccc(F)cc1 | 0.266 µM | > 100 µM | 1.42 µM | > 100 µM | 0.165 µM | > 100 µM | 0.421 µM | > 100 µM | 0.602 µM | > 100 µM | 0.105 µM | > 19.7 µM | 0.671 µM | > 100 µM | 0.576 µM | 9.17 µM | 0.262 µM | > 100 µM | 0.22 µM | 3.5 µM
CC(=O)Oc1ccc(/C=N/NC(N)=S)nc1 | 4.48 µM | > 100 µM | 12.9 µM | > 100 µM | 19 µM | > 100 µM | 4.82 µM | > 100 µM | 5.14 µM | > 100 µM | 3.48 µM | > 100 µM | 69 µM | > 100 µM | 4.24 µM | > 100 µM | 6.42 µM | 42.6 µM | 3.38 µM | 23.4 µM
Oc1ccc(Cl)cc1Cc1cc(Cl)ccc1O | 2.6 µM | 7.08 µM | 0.801 µM | 3.58 µM | 3.55 µM | 10.6 µM | 3.06 µM | 11.1 µM | 2.76 µM | 8.44 µM | 2.19 µM | 6.32 µM | 4.79 µM | 19.6 µM | 2.38 µM | 8.04 µM | 2.27 µM | 6.09 µM | 1.62 µM | 3.46 µM
Cc1cc(Cl)ccc1NS(=O)(=O)c1ccc(-c2cnc(C3CC3)o2)cc1 | 0.3 µM | 11.9 µM | 1.05 µM | 13 µM | 0.267 µM | 11.8 µM | 0.211 µM | 15.3 µM | 0.0838 µM | 15.5 µM | 0.178 µM | 13 µM | 0.572 µM | 17.2 µM | 0.268 µM | 17.7 µM | 0.0799 µM | 2.02 µM | 0.517 µM | 6.88 µM
